Here are results for 1 compound from patent publication US11833158B2, “Compositions comprising omega-3 fatty acids, 17-HDHA and 18-HEPE and methods of using same” (Solutex NA LLC, priority 2015, dated 2023).

The assay concerns PMA-stimulated THP-1 cells. Kind of assay: Phagocytosis of opsonized zymosan bioparticles in PMA-stimulated THP-1 cells (fluorescence). The conditions noted are these: oils diluted 1/10^3; Mar-1 at 1 nM; 15 min pretreatment, 60 min incubation with zymosan. Format: cell-based, human. As for the experimental part: To determine the capacity of promoting a macrophage pro-resolution phenotype (i.e. M2) and therefore to foster the resolution of inflammation, several oils were tested in a human macrophage model adapted by López Vicario C from a method previously described (Titos et al., 2011) and compared with Mar-1 (the term Maresins is coined from Macrophage mediator in resolving inflammation), an established active compound in resolution of the inflammation.
THP-1 cells were cultured in a 96-well black plate at a density of 3.5×10^4 cells/well in 200 μl RPMI 1640 medium (10% FBS). […]
The compounds tested in this macrophage model were: • Maresin 1 (from Cayman Chemicals) • LM03-1 (a total amount of Omega-3 of about 629.9 mg/g (as FFA), DHA in an amount of about 342.1 mg/g (as FFA), EPA in an amount of about 187.6 mg/g (as FFA), 17-HDHA in an amount of about 60.8 mg/kg and 18-HEPE in an amount of about 87.5 mg/kg with 1.4 mg/g of a mixed natural tocopherols—3624 EE (about 33.0% EPA ethyl ester and about 22% DHA in ethyl ester form expressed as FFA) • Omacor (about 42.5% EPA ethyl ester and about 34.5% DHA in ethyl ester form expressed as FFA)
The concentration of Mar-1 used in the experiment was 1 nM, which has been determined the concentration with maximum activity in phagocytic activation for this compound in previous experiments using this model (data not shown). […]

Take `CC/C=C\C/C=C\C[C@H](O)/C=C/C=C/C=C/[C@H](O)C/C=C\CCC(=O)O` [Maresin-1, 7R,14S-dihydroxy-4Z,8E,10E,12E,16Z,19Z-docosahexaenoic acid]: the “phagocytic activity relative to Mar-1 (100% assigned to Mar-1 1 nM)” value is on record as 100%.
